# Assay results from paper PMC5427163, “Simple and cost-effective liquid chromatography-mass spectrometry method to measure dabrafenib quantitatively and six metabolites semi-quantitatively in human plasma” (Analytical and Bioanalytical Chemistry, 2017).
# Marks after values point to notes of the source that are not given here.
# Key:
# [1] = cited from earlier work; for Variation of plasma concentration during a 12-h period: after a 150-mg dose of dabrafenib at steady state (day 15)
# [2] = LC-MS/MS measurement of dabrafenib and metabolites in patient plasma at steady state; format: in vivo, human; settings: for Plasma concentration in typical patient sample: Fig. 3, single patient sample; for Diff (difference between the highest and lowest concentrations) / Median C (plasma concentration) / Range of plasma concentration: patient plasma, steady state, dabrafenib 150 mg BID orally
# Procedure: Seven blood samples were obtained between 14 and 17 h after last dose from four different patients with disseminated melanoma after 1, 2, or 3 months of treatment with dabrafenib at the full recommended dose of 150 mg BID orally. […] Plasma was collected after centrifugation, immediately frozen, and stored at −80 °C until analysis. The study protocol was approved by the Ethical Review Board in Stockholm (DNR 2011/1980-31/1) and written informed consent was obtained from patients prior to study entry. Drug-free ethylenediaminetetraacetic acid (EDTA) plasma was donated from six volunteers (three males and three females) with an average age of 26 (22–30) years.
# Fifty microliters aliquots of plasma was thawed and precipitated with 200 μL of internal standard mixture containing erlotinib-d6 (200 ng/mL) in acetonitrile. Following vortex mixing, the samples were centrifuged (17530 RCF, 5 min, 4 °C). The supernatant (150 μL) was mixed with 150 μL water and transferred to a 0.7-mL 96-well plate.
# Calibration standards for dabrafenib were prepared at seven levels in the concentration range 5–5000 ng/mL (5-15-60-250-1000-3750-5000) by diluting the corresponding working stock solutions 1:10 with drug-free plasma. The upper limit of quantification (ULOQ) was selected based on the highest expected dabrafenib concentration, and the lower limit of quantification (LLOQ) was selected based on observed carry-over from the ULOQ. LOD was not determined as LLOQ was limited by the carry-over. QC samples were prepared separately from the calibration standards at four levels (LLOQ-low-medium-high, 5-15-250-3750 ng/ml).
# Due to the lack of reference materials, the six metabolites were semi-quantitatively determined using the calibration curve for dabrafenib. The bias caused by, among other things, differences in recovery and ionization efficiency was not corrected for. This bias is indicated by the addition of an asterisk to the units of metabolite concentrations.
# [3] = Clinical pharmacokinetics of dabrafenib (literature); format: in vivo, human; settings: plasma
# [4] = Stability of dabrafenib in spiked whole blood, plasma and processed samples; format: in vitro ADME, human; settings: for Concentration relative to nominal concentration (Rel): long term, −80 °C for 16 months
# Procedure: Stability was evaluated at the low and high QC levels. Processed sample stability by re-injection of calibration and QC samples after 24 h at 5 °C. Freeze-thaw stability (n = 3) was determined for three freeze-thaw cycles at −80 °C. Short-term stability of dabrafenib was investigated in whole blood and plasma using spiked drug-free plasma (n = 2) stored at room temperature or 5 °C for 0, 24, 48, and 72 h, respectively. Long-term stability of dabrafenib (QC low, QC middle, and QC high; n = 3) was determined for a sample stored at −80 °C for 16 months. Accuracy within ±15% of the nominal value was required to consider dabrafenib stable under all conditions.
# [5] = as above; format: in vitro ADME, human; settings: 72 h 4°C
# [6] = set-up: method as in PMID 22735384; settings: phase III trial; cited from earlier work
# BRAFV600E = test system: BRAFV600E; set-up: method as in earlier work; settings: cited from earlier work
# [7] = semi-quantification based on the calibration curve of dabrafenib
# [8] = 14-17 h after last dose, semi-quantification based on the calibration curve of dabrafenib
smiles,measurement,setting,value
"CC(C)(C(=O)O)c1nc(-c2cccc(NS(=O)(=O)c3c(F)cccc3F)c2F)c(-c2ccnc(N)n2)s1 [Carboxy-Dab, carboxy-dabrafenib]",Variation of plasma concentration during a 12-h period,[1],around 1.5 fold
same,Plasma concentration in typical patient sample,[2]; [7],400 ng/mL
same,Diff (difference between the highest and lowest concentrations),[2],3-fold
same,Median C (plasma concentration),[2]; [8],450^a ng/ml
same,Range of plasma concentration,[2]; [7],(230–690) ng/ml
same,Concentration reported by Falchook et al. relative to this study (fold higher),[3],8 fold
CC(C)(C)c1nc(-c2cccc(NS(=O)(=O)c3c(F)cccc3F)c2F)c(-c2ccnc(N)n2)s1 [Dabrafenib],Variation of plasma concentration during a 12-h period,[1],16 fold
same,Inter-patient coefficient of variation (CV) in maximum concentration at steady state,[1],73%
same,Half-life,[1]; patients,4.8 h
same,Plasma concentration in lowest patient sample,[2]; Fig. 2,75 ng/mL
same,Plasma concentration in typical patient sample,[2]; quantitative,1400 ng/mL
same,Diff (difference between the highest and lowest concentrations),[2],19-fold
same,Median C (plasma concentration),"[2]; 14-17 h after last dose, 7 samples from 4 patients, quantitative",400 ng/mL
same,Range of plasma concentration,"[2]; 14-17 h after last dose, quantitative",(75–1400) ng/ml
same,Long-term stability in plasma,[4]; 16 months of storage at −80 °C,stable
same,Stability of processed samples,"[4]; 24 h at 5 °C, stable = accuracy within ±15% of nominal",stable
same,Short-term stability in whole blood or plasma,"[4]; 72 h at room temperature and at 5 °C, stable = accuracy within ±15% of nominal",stable
same,Concentration relative to initial sample concentration (Rel),"[4]; plasma, High QC, 72 h 4°C",106%
same,Concentration relative to initial sample concentration (Rel),"[4]; plasma, High QC, 72 h RT",101%
same,Concentration relative to nominal concentration (Rel),"[4]; plasma, High QC",106%
same,Concentration relative to initial sample concentration (Rel),"[4]; plasma, High QC, three freeze-thaw cycles at −80 °C",96%
same,Concentration relative to initial sample concentration (Rel),"[4]; plasma, Low QC, 72 h RT",98%
same,Concentration relative to nominal concentration (Rel),"[4]; plasma, Low QC",101%
same,Concentration relative to initial sample concentration (Rel),"[4]; plasma, Low QC, three freeze-thaw cycles at −80 °C",98%
same,Concentration relative to initial sample concentration (Rel),"[4]; processed sample, High QC, 24 h 5°C",89%
same,Concentration relative to initial sample concentration (Rel),"[4]; processed sample, Low QC, 24 h 5°C",87%
same,Freeze-thaw stability in plasma,[4]; three freeze-thaw cycles,stable
same,Concentration relative to initial sample concentration (Rel),"[4]; whole blood, High QC, 72 h RT",95%
same,Concentration relative to initial sample concentration (Rel),"[4]; whole blood, Low QC, 72 h RT",94%
same,Concentration relative to initial sample concentration (Rel),"[5]; plasma, Low QC",109%
same,Concentration relative to initial sample concentration (Rel),"[5]; whole blood, High QC",99%
same,Concentration relative to initial sample concentration (Rel),"[5]; whole blood, Low QC",99%
same,Patients with adverse events of grade 2 or greater,[6],53%
"CC(C)c1nc(-c2cccc(NS(=O)(=O)c3c(F)cccc3F)c2F)c(-c2ccnc(N)n2)s1 [Desmethyl-Dab, desmethyl-dabrafenib]",Variation of plasma concentration during a 12-h period,[1],around 1.5 fold
same,Plasma concentration in typical patient sample,[2]; [7],660 ng/mL
same,Diff (difference between the highest and lowest concentrations),[2],4-fold
same,Median C (plasma concentration),[2]; [8],400^a ng/ml
same,Range of plasma concentration,[2]; [7],(170–660) ng/ml
same,IC50 relative to dabrafenib (fold higher),BRAFV600E,~2 fold
C=C(COC1OC(C(=O)O)C(O)C(O)C1O)c1nc(-c2cccc(NS(=O)(=O)c3c(F)cccc3F)c2F)c(-c2ccnc(N)n2)s1 (stereo not drawn) [Gluc met],Plasma concentration in typical patient sample,[2]; [7],32 ng/mL
same,Diff (difference between the highest and lowest concentrations),[2],3-fold
same,Median C (plasma concentration),[2]; [8],38^a ng/ml
same,Range of plasma concentration,[2]; [7],(22–65)^b ng/ml
"CC(C)(CO)c1nc(-c2cccc(NS(=O)(=O)c3c(F)cccc3F)c2F)c(-c2ccnc(N)n2)s1 [Hydroxy-Dab, hydroxy-dabrafenib]",Variation of plasma concentration during a 12-h period,[1],7 fold
same,Plasma concentration in typical patient sample,[2]; [7],280 ng/mL
same,Diff (difference between the highest and lowest concentrations),[2],15-fold
same,Median C (plasma concentration),[2]; [8],74^a ng/ml
same,Range of plasma concentration,[2]; [7],(19–278) ng/ml
same,IC50 relative to dabrafenib (fold higher),BRAFV600E,approximately 3 fold
C=C(C)c1nc(-c2cccc(NS(=O)(=O)c3c(F)cccc3F)c2F)c(-c2ccnc(N)n2)s1 [M31],Plasma concentration in typical patient sample,[2]; [7],550 ng/mL
same,Diff (difference between the highest and lowest concentrations),[2],4-fold
same,Median C (plasma concentration),[2]; [8],400^a ng/ml
same,Range of plasma concentration,[2]; [7],(160–590) ng/ml
CCCS(=O)(=O)Nc1ccc(F)c(C(=O)c2c[nH]c3ncc(-c4ccc(Cl)cc4)cc23)c1F [vemurafenib],Inter-patient variability,[1],30–60%
